From patent publication EP3654984B1, “TOPICAL TREATMENT FOR PREVENTING AND MITIGATING SKIN CYTOTOXICITY DUE TO THERAPY WITH TYROSINE KINASE INHIBITORS” (EUCARE S.R.L., priority 2017, dated 2019)
Entries after “also recorded” stand apart in the source; their conditions may differ.

Tests used:
[1] = test system: patients with EGFR mutation-positive non-small-cell lung cancer; conditions: LUX-Lung 7, cited from earlier work
[2] = test system: skin and subcutaneous tissue; conditions: EMA marketing authorization documentation; cited from earlier work
[3] = test system: patients with metastatic lung adenocarcinoma with EGFR mutations; conditions: cited from earlier work
[4] = test system: Asian patients with advanced non-small-cell lung cancer harboring EGFR mutations; conditions: cited from earlier work
[5] = test system: patients with non-small cell lung cancer (NSCLC); conditions: afatinib 40 mg/day for 90 days, cited from earlier work
[6] = test system: appropriate patient population; conditions: approximately; when given to an appropriate patient population; cited from earlier work
[7] = test system: patients with metastatic lung cancer; assay: Retrospective study of prophylactic dermatological treatment with polydatin cream on cutaneous toxicity of afatinib (NCI-CTCAE v3.0 grading); type: in vivo; conditions: for Incidence of skin rash, All grades (%) / Incidence of skin rash, Grade 1 (%) / Incidence of skin rash, Grade 2 (%) / Incidence of skin rash, Grade 3 (%): 1.5% polydatin cream twice a day
Description: The main exclusion criteria were: poor patient compliance; allergy or sensitivity to polydatin; current or previous treatment with topical or oral antioxidant drugs; concomitant skin diseases.
The retrospective study was specifically designed to evaluate a proactive management of EGFR-mediated skin toxicity, in order to minimize the possibility of having to reduce the dose or suspend the antitumor treatment.
Patients were monitored every 7 days for the first month, and thereafter every 20 days or when needed.
Data about severity, duration and management of cutaneous toxicity induced by TKI were analyzed in all patients treated using a descriptive statistic.
The scale used for the classification of cutaneous toxicities induced by EGFR-targeted therapies was the classification scale of the Common Terminology Criteria for Adverse Events of the National Cancer Institute.

skin = skin reactions during treatment with sunitinib and sorafenib; cited from earlier work
[8] = of the 160 (afatinib) / 159 (gefitinib) patients treated
[9] = term used for a group of adverse events
[10] = Cutaneous rash, all patients (n = 34), afatinib 40 mg/day

SMILES: CN(C)C/C=C/C(=O)Nc1cc2c(Nc3ccc(F)c(Cl)c3)ncnc2cc1O[C@H]1CCOC1 [Afatinib, afatinib]
- ALT increased, All ([1]; ALT, alanine aminotransferase): 9.4%
- AST increased, All ([1]; AST, aspartate aminotransferase): 6.3%
- Diarrhea, All ([1]; afatinib 40 mg/day or gefitinib 250 mg/day): 90.0%
- Alopecia, All [1]: 10.6%
- Itching, All [1]: 23.1%
- Nausea, All [1]: 16.3%
- Nausea, Grade 3 [1]: 1.3%
- Reduction of appetite, All [1]: 16.3%
- Reduction of appetite, Grade 3 [1]: 0.6%
- Vomiting, All [1]: 10.6%
- Xerosis, All [1]: 32.5%
- grade 3 or 4 diarrhea [1]: 13%
- grade 3 or 4 rash or acne [1]: 9%
- grade 3 or 4 diarrhea, number of patients [1, 8]: 20 patients
- grade 3 or 4 rash or acne, number of patients [1, 8]: 15 patients
- Asthenia*, All [1, 9]: 20.6%
- Asthenia*, Grade 3 [1, 9]: 5.6%
- Paronychia*, All [1, 9]: 55.6%
- Paronychia*, Grade 3 [1, 9]: 1.9%
- Rash/acne*, All [1, 9]: 88.8%
- Rash/acne*, Grade 3 [1, 9]: 9.4%
- Stomatitis*, All [1, 9]: 64.4%
- Stomatitis*, Grade 3 [1, 9]: 4.4%
- frequency of acneiform dermatitis [2]: very common ("very common" (frequency ≥ 1/10))
- frequency of dryness of the skin (xerosis) [2]: very common ("very common" (frequency ≥ 1/10))
- frequency of itching [2]: very common ("very common" (frequency ≥ 1/10))
- frequency of palmoplantar erythrodysesthesia syndrome [2]: common ("common" (frequency ≥ 1/100 e < 1/10))
- frequency of skin rash [2]: very common ("very common" (frequency ≥ 1/10))
- treatment discontinued due to treatment-related adverse events ([3]; LUX LUNG 3, % of patients): 8%
- incidence of rash grade 1-2 ([3]; LUX LUNG 3): 72.9%
- Asthenia, All grades ([3]; LUX-Lung 3 (LL3)): 17.5%
- Asthenia, Grade 3 ([3]; LUX-Lung 3 (LL3)): 1.3%
- Asthenia, Grade 4 ([3]; LUX-Lung 3 (LL3)): 0%
- Diarrhea, All grades ([3]; LUX-Lung 3 (LL3)): 95.2%
- Diarrhea, Grade 3 ([3]; LUX-Lung 3 (LL3)): 14.4%
- Diarrhea, Grade 4 ([3]; LUX-Lung 3 (LL3)): 0%
- Dry skin, All grades ([3]; LUX-Lung 3 (LL3)): 29.3/NA %
- Dry skin, Grade 3 ([3]; LUX-Lung 3 (LL3)): 0.4/NA %
- Dry skin, Grade 4 ([3]; LUX-Lung 3 (LL3)): 0%
- Hitching, All grades ([3]; LUX-Lung 3 (LL3)): 18.8%
- Hitching, Grade 3 ([3]; LUX-Lung 3 (LL3)): 0.4/0.4%
- Hitching, Grade 4 ([3]; LUX-Lung 3 (LL3)): 0%
- Nausea, All grades ([3]; LUX-Lung 3 (LL3)): 17.9%
- Nausea, Grade 3 ([3]; LUX-Lung 3 (LL3)): 0.9%
- Nausea, Grade 4 ([3]; LUX-Lung 3 (LL3)): 0%
- Paronychia/periungual problems, All grades ([3]; LUX-Lung 3 (LL3)): 56.8%
- Paronychia/periungual problems, Grade 3 ([3]; LUX-Lung 3 (LL3)): 11.4%
- Paronychia/periungual problems, Grade 4 ([3]; LUX-Lung 3 (LL3)): 0%
- Rash/acne, All grades ([3]; LUX-Lung 3 (LL3)): 89.1%
- Rash/acne, Grade 3 ([3]; LUX-Lung 3 (LL3)): 16.2%
- Rash/acne, Grade 4 ([3]; LUX-Lung 3 (LL3)): 0.0%
- Reduction of appetite, All grades ([3]; LUX-Lung 3 (LL3)): 20.5%
- Reduction of appetite, Grade 3 ([3]; LUX-Lung 3 (LL3)): 3.1%
- Reduction of appetite, Grade 4 ([3]; LUX-Lung 3 (LL3)): 0%
- Stomatitis/mucositis, All grades ([3]; LUX-Lung 3 (LL3)): 72.1%
- Stomatitis/mucositis, Grade 3 ([3]; LUX-Lung 3 (LL3)): 8.37%
- Stomatitis/mucositis, Grade 4 ([3]; LUX-Lung 3 (LL3)): 0.4%
- Vomiting, All grades ([3]; LUX-Lung 3 (LL3)): 17.0%
- Vomiting, Grade 3 ([3]; LUX-Lung 3 (LL3)): 3.1%
- Vomiting, Grade 4 ([3]; LUX-Lung 3 (LL3)): 0%
- incidence of rash grade 1-2 ([4]; LUX LUNG 6): 66.1%
- rate of treatment discontinuation due to adverse events ([4]; LUX LUNG 6): 2.1%
- Asthenia, All grades ([4]; LUX-Lung 6 (LL6)): 10.0%
- Asthenia, Grade 3 ([4]; LUX-Lung 6 (LL6)): 0.4%
- Asthenia, Grade 4 ([4]; LUX-Lung 6 (LL6)): 0%
- Diarrhea, All grades ([4]; LUX-Lung 6 (LL6)): 88.3%
- Diarrhea, Grade 3 ([4]; LUX-Lung 6 (LL6)): 5.4%
- Diarrhea, Grade 4 ([4]; LUX-Lung 6 (LL6)): 0%
- Hitching, All grades ([4]; LUX-Lung 6 (LL6)): 10.9%
- Hitching, Grade 3 ([4]; LUX-Lung 6 (LL6)): 0.4/0.4%
- Hitching, Grade 4 ([4]; LUX-Lung 6 (LL6)): 0%
- Nausea, All grades ([4]; LUX-Lung 6 (LL6)): 7.5%
- Nausea, Grade 3 ([4]; LUX-Lung 6 (LL6)): 0.0%
- Nausea, Grade 4 ([4]; LUX-Lung 6 (LL6)): 0%
- Paronychia/periungual problems, All grades ([4]; LUX-Lung 6 (LL6)): 32.6%
- Paronychia/periungual problems, Grade 3 ([4]; LUX-Lung 6 (LL6)): 0.0%
- Paronychia/periungual problems, Grade 4 ([4]; LUX-Lung 6 (LL6)): 0%
- Rash/acne, All grades ([4]; LUX-Lung 6 (LL6)): 80.8%
- Rash/acne, Grade 3 ([4]; LUX-Lung 6 (LL6)): 14.2%
- Rash/acne, Grade 4 ([4]; LUX-Lung 6 (LL6)): 0.4%
- Reduction of appetite, All grades ([4]; LUX-Lung 6 (LL6)): 10.0%
- Reduction of appetite, Grade 3 ([4]; LUX-Lung 6 (LL6)): 1.3%
- Reduction of appetite, Grade 4 ([4]; LUX-Lung 6 (LL6)): 0%
- Stomatitis/mucositis, All grades ([4]; LUX-Lung 6 (LL6)): 51.9%
- Stomatitis/mucositis, Grade 3 ([4]; LUX-Lung 6 (LL6)): 5.4%
- Stomatitis/mucositis, Grade 4 ([4]; LUX-Lung 6 (LL6)): 0.0%
- Vomiting, All grades ([4]; LUX-Lung 6 (LL6)): 9.6%
- Vomiting, Grade 3 ([4]; LUX-Lung 6 (LL6)): 0.8%
- Vomiting, Grade 4 ([4]; LUX-Lung 6 (LL6)): 0%
- incidence of rash of any grade ([5]; control arm (no treatment)): 75.6%
- incidence of rash grade ≥ 2 ([5]; control arm): 35.6%

SMILES: COc1cc2ncnc(Nc3ccc(F)c(Cl)c3)c2cc1OCCCN1CCOCC1 [Gefitinib, gefitinib]
- response rates [6]: 60-70%

SMILES: C#Cc1cccc(Nc2ncnc3cc(OCCOC)c(OCCOC)cc23)c1 [erlotinib]
- response rates [6]: 60-70%

SMILES: OC[C@H]1O[C@@H](Oc2cc(O)cc(/C=C/c3ccc(O)cc3)c2)[C@H](O)[C@@H](O)[C@@H]1O [polydatin, 3,4,5'-trihydroxystilbene-3-β-mono-d-glucoside]
- patients who had to discontinue therapy due to toxicity of the antitumor drug ([7]; 1.5% polydatin cream prophylaxis, afatinib 40 mg/day, n = 34): no patient; also recorded: no suspension of treatment
- Incidence of skin rash, All grades (%) [7, 10]: 41.2%
- Incidence of skin rash, Grade 1 (%) [7, 10]: 20.6%
- Incidence of skin rash, Grade 2 (%) [7, 10]: 20.6%
- Incidence of skin rash, Grade 3 (%) [7, 10]: 0%
- Incidence of skin rash, All grades (%) ([7]; Females, afatinib 40 mg/day): 23.5%
- Incidence of skin rash, Grade 1 (%) ([7]; Females, afatinib 40 mg/day): 5.9%
- Incidence of skin rash, Grade 2 (%) ([7]; Females, afatinib 40 mg/day): 8.6%
- Incidence of skin rash, Grade 3 (%) ([7]; Females, afatinib 40 mg/day): 0%
- Incidence of skin rash, All grades (%) ([7]; Males, afatinib 40 mg/day): 17.6%
- Incidence of skin rash, Grade 1 (%) ([7]; Males, afatinib 40 mg/day): 14.7%
- Incidence of skin rash, Grade 2 (%) ([7]; Males, afatinib 40 mg/day): 12%
- Incidence of skin rash, Grade 3 (%) ([7]; Males, afatinib 40 mg/day): 0%
- patients who had to reduce the dose for the cutaneous toxicity of the drug ([7]; prophylaxis with polydatin, afatinib, n = 34): no patient
- patients who had to reduce the dose of afatinib from 40 to 30 mg/day due to intestinal toxicity (%) ([7]; prophylaxis with polydatin, n = 34): 35.3%

SMILES: CNC(=O)c1cc(Oc2ccc(NC(=O)Nc3ccc(Cl)c(C(F)(F)F)c3)cc2)ccn1 [sorafenib]
- alopecia (skin): 15%
- folliculitis (skin): 38%
- hand-foot syndrome (palmopantar erythrodysesthesia) (skin): 42%
- nail alterations (skin): 14%
- pruritus (skin): 36%
- skin rash (skin): 46%
- stomatitis (skin): 16%

SMILES: CCN(CC)CCNC(=O)c1c(C)[nH]c(/C=C2\C(=O)Nc3ccc(F)cc32)c1C [sunitinib]
- alopecia (skin): 15%
- folliculitis (skin): 38%
- hand-foot syndrome (palmopantar erythrodysesthesia) (skin): 42%
- nail alterations (skin): 14%
- pruritus (skin): 36%
- skin rash (skin): 46%
- stomatitis (skin): 16%
